Laboratory results as given in paper PMC6785188 (ACS chemical neuroscience, 2019).

Columns and labels:
D1 [1] = molecular target: T1, D1 (Homo sapiens, UniProt P21728); experiment: D1R GS-mediated cAMP accumulation GloSensor assay; type: cell-based; conditions: for activity in GS-cAMP accumulation (in words): GloSensor; for Emax: read-out: GS-cAMP EMAX
D1 [2] = molecular target: T1, D1; experiment: BRET β-arrestin2 recruitment assay; type: cell-based; conditions: for activity in β-arrestin2 recruitment (in words): BRET; for Emax: read-out: β-arrestin2 EMAX
6-OHDA-lesioned mice = experiment: Motor activity study in 6-OHDA-lesioned mice; type: in vivo; conditions: 5 mg/kg i.p.

T1 sequence (P21728 whole entry): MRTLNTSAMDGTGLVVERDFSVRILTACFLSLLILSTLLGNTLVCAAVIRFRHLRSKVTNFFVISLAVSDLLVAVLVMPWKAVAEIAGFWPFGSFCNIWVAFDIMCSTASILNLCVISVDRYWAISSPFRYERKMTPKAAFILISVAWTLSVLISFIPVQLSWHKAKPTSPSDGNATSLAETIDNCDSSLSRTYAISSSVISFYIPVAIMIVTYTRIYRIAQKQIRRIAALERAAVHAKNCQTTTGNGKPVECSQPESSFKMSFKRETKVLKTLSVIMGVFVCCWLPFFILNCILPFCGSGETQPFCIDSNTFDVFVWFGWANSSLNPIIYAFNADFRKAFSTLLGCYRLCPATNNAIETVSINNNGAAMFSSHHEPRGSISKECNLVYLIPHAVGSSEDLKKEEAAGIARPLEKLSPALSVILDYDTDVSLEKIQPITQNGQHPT

Cc1cc(Oc2nccc3occc23)ccc1C1=CCN(C)CC1 [Compound 1, 4-(3-Methyl-4-(1-methyl-1,2,3,6-tetrahydropyridin-4-yl)-phenoxy)furo[3,2-c]pyridine] was tested. Which “activity in GS-cAMP accumulation (in words)” value (D1 [1]) did it give?
The value was “largely inactive”.

And the “activity in β-arrestin2 recruitment (in words)” value (D1 [2])?
The value was “largely inactive”.

Cc1cc(Oc2nccc3occc23)ccc1-c1cc[nH]c(=O)c1 [Compound 3, 4-(4-(Furo[3,2-c]pyridin-4-yloxy)-2-methylphenyl)pyridin-2(1H)-one] was tested. Which EC50 (D1 [1]) did it give?
Its EC50 is 176 nM.

What about the Emax (D1 [1]) of the same compound?
Its Emax is 81%.

What about the “activity in β-arrestin2 recruitment (in words)” value (D1 [2]) of the same compound?
Its value is “no activity”.

For Cc1cc(Oc2nccc3occc23)ccc1-c1cc(=O)[nH]cn1 [Compound 5, 6-(4-(Furo[3,2-c]pyridin-4-yloxy)-2-methylphenyl)pyrimidin-4(3H)-one], which EC50 (D1 [1]) is on record?
The EC50 was 133 nM.

And the Emax (D1 [1])?
Its Emax is 96%.

What about the EC50 (D1 [2]) of the same compound?
The EC50 was greater than 10000 nM.

With Cc1cc(Oc2nccc3occc23)ccc1-c1cc(N)nc(N)n1 [Compound 8, 6-(4-(Furo[3,2-c]pyridin-4-yloxy)-2-methylphenyl)pyrimidine-2,4-diamine] as the compound, how does the EC50 (D1 [1]) read?
Its EC50 is greater than 10000 nM.

What about the “activity in β-arrestin2 recruitment (in words)” value (D1 [2]) of the same compound?
Its value is “no activity”.

For Cc1cc(Oc2nccc3occc23)ccc1-c1cc(=O)[nH]c(=O)[nH]1 [Compound 9, 6-(4-(Furo[3,2-c]pyridin-4-yloxy)-2-methylphenyl)pyrimidine-2,4(1H,3H)-dione], which EC50 (D1 [1]) is on record?
The EC50 was 9 nM.

What about the Emax (D1 [1]) of the same compound?
Its Emax is 78%.

What about the EC50 (D1 [2]) of the same compound?
Its EC50 is 2090 nM.

And the Emax (D1 [2])?
The Emax was 37%.

How did the EC50 (D1 [1]) turn out when Cc1cc(Oc2nccc3occc23)ccc1-c1c(C)cnc(=O)n1C [Compound 11, 6-(4-(Furo[3,2-c]pyridin-4-yloxy)-2-methylphenyl)-1,5-dimethylpyrimidin-2(1H)-one] was run?
Its EC50 is 1.8 nM.

What about the Emax (D1 [1]) of the same compound?
Its Emax is 88%.

And the EC50 (D1 [2])?
Its EC50 is 151 nM.

What about the Emax (D1 [2]) of the same compound?
Its Emax is 19%.

How did the EC50 (D1 [1]) turn out when Cc1cc(Oc2nccc3occc23)ccc1-c1cn[nH]c(=O)c1C [Compound 12, 5-(4-(Furo[3,2-c]pyridin-4-yloxy)-2-methylphenyl)-4-methylpyridazin-3(2H)-one] was run?
Its EC50 is 1.1 nM.

What about the Emax (D1 [1]) of the same compound?
The Emax was 92%.

And the EC50 (D1 [2])?
Its EC50 is 196 nM.

And the Emax (D1 [2])?
The Emax was 63%.

Which results are given for Cc1cc(Oc2nccc3occc23)ccc1-c1c(C)cn[nH]c1=O [Compound 13, 4-(4-(Furo[3,2-c]pyridin-4-yloxy)-2-methylphenyl)-5-methylpyridazin-3(2H)-one]?
EC50 (D1 [1]): 205 nM; Emax (D1 [1]): 82%; activity in β-arrestin2 recruitment (in words) (D1 [2]): no activity

CCn1c(-c2ccc(Oc3nccc4occc34)cc2C)c(C)c(=O)[nH]c1=O [Compound 17, 1-Ethyl-6-(4-(furo[3,2-c]pyridin-4-yloxy)-2-methylphenyl)-5-methylpyrimidine-2,4(1H,3H)-dione] was tested. Which EC50 (D1 [1]) did it give?
Its EC50 is 0.08 nM.

What about the Emax (D1 [1]) of the same compound?
The Emax was 95%.

And the EC50 (D1 [2])?
Its EC50 is 13 nM.

What about the Emax (D1 [2]) of the same compound?
The Emax was 65%.

Which EC50 (D1 [1]) does the source give for Cc1cc(Oc2nccc3occc23)ccc1-c1c(C)c(=O)[nH]c(=O)n1CC1CC1 [Compound 19, 1-(Cyclopropylmethyl)-6-(4-(furo[3,2-c]pyridin-4-yloxy)-2-methylphenyl)-5-methylpyrimidine-2,4(1H,3H)-dione] here?
Its EC50 is 0.5 nM.

And the Emax (D1 [1])?
The Emax was 84%.

What about the “activity in β-arrestin2 recruitment (in words)” value (D1 [2]) of the same compound?
The value was “no activity”.

With Cc1cc(Oc2nccc3occc23)ccc1-c1c(C)c(=O)[nH]c(=O)n1C1CCC1 [Compound 20, 1-Cyclobutyl-6-(4-(furo[3,2-c]pyridin-4-yloxy)-2-methylphenyl)-5-methylpyrimidine-2,4(1H,3H)-dione] as the compound, how does the EC50 (D1 [1]) read?
The EC50 was 0.8 nM.

What about the Emax (D1 [1]) of the same compound?
Its Emax is 82%.

What about the “activity in β-arrestin2 recruitment (in words)” value (D1 [2]) of the same compound?
Its value is “no activity”.

For Cc1cc(-c2c(C)c(=O)[nH]c(=O)n2C)ccc1Oc1nccc2occc12 [Compound 26, 6-(4-(Furo[3,2-c]pyridin-4-yloxy)-3-methylphenyl)-1,5-dimethylpyrimidine-2,4(1H,3H)-dione], which EC50 (D1 [1]) is on record?
The EC50 was 33 nM.

What about the Emax (D1 [1]) of the same compound?
The Emax was 100%.

What about the “activity in β-arrestin2 recruitment (in words)” value (D1 [2]) of the same compound?
Its value is “no activity”.

Cc1c(-c2ccc(Oc3nccc4occc34)cc2)n(C)c(=O)[nH]c1=O [Compound 27, 6-(4-(Furo[3,2-c]pyridin-4-yloxy)phenyl)-1,5-dimethylpyrimidine-2,4(1H,3H)-dione] was tested. Which EC50 (D1 [1]) did it give?
The EC50 was 0.08 nM.

And the Emax (D1 [1])?
Its Emax is 96%.

And the EC50 (D1 [2])?
Its EC50 is 40 nM.

What about the Emax (D1 [2]) of the same compound?
The Emax was 75%.

For Cc1cc(O)ccc1-c1c(C)c(=O)[nH]c(=O)n1C [Compound 28, 6-(4-Hydroxy-2-methylphenyl)-1,5-dimethylpyrimidine-2,4-(1H,3H)-dione], which “activity in GS-cAMP accumulation (in words)” value (D1 [1]) is on record?
The value was “inactive”.

What about the “activity in β-arrestin2 recruitment (in words)” value (D1 [2]) of the same compound?
Its value is “inactive”.

COc1ccc(-c2c(C)c(=O)[nH]c(=O)n2C)c(C)c1 [Compound 29, 6-(4-Methoxy-2-methylphenyl)-1,5-dimethylpyrimidine-2,4-(1H,3H)-dione] was tested. Which “activity in GS-cAMP accumulation (in words)” value (D1 [1]) did it give?
The value was “inactive”.

And the “activity in β-arrestin2 recruitment (in words)” value (D1 [2])?
The value was “inactive”.

With Cc1cc(Oc2ccccn2)ccc1-c1c(C)c(=O)[nH]c(=O)n1C [Compound 30, 1,5-Dimethyl-6-(2-methyl-4-(pyridin-2-yloxy)phenyl)pyrimidine-2,4(1H,3H)-dione] as the compound, how does the Emax (D1 [1]) read?
The Emax was 107%.

What about the Emax (D1 [2]) of the same compound?
Its Emax is 40%.

Which results are given for COc1ccnc(Oc2ccc(-c3c(C)c(=O)[nH]c(=O)n3C)c(C)c2)c1 [Compound 31, 6-(4-((4-Methoxypyridin-2-yl)oxy)-2-methylphenyl)-1,5-dimethylpyrimidine-2,4(1H,3H)-dione]?
EC50 (D1 [1]): 2 nM; Emax (D1 [1]): 108%; EC50 (D1 [2]): 52 nM; Emax (D1 [2]): 27%

How did the Emax (D1 [1]) turn out when Cc1cc(Oc2ncccc2C(F)(F)F)ccc1-c1c(C)c(=O)[nH]c(=O)n1C [Compound 32, 1,5-Dimethyl-6-(2-methyl-4-((3-(trifluoromethyl)pyridin-2-yl)-oxy)phenyl)pyrimidine-2,4(1H,3H)-dione] was run?
Its Emax is 118%.

And the Emax (D1 [2])?
Its Emax is 30%.

Which EC50 (D1 [1]) does the source give for COc1ccnc(Oc2ccc(-c3c(C)c(=O)[nH]c(=O)n3C)c(C)c2)c1C#N [Compound 33, 2-(4-(3,5-Dimethyl-2,6-dioxo-1,2,3,6-tetrahydropyrimidin-4-yl)-3-methylphenoxy)-4-methoxynicotinonitrile] here?
Its EC50 is 23 nM.

And the Emax (D1 [1])?
The Emax was 59%.

And the “activity in β-arrestin2 recruitment (in words)” value (D1 [2])?
Its value is “no activity”.

What does the source list for Cc1cc(Oc2nccc(Cl)c2C(F)(F)F)ccc1-c1c(C)c(=O)[nH]c(=O)n1C [Compound 34, 6-(4-((4-Chloro-3-(trifluoromethyl)pyridin-2-yl)oxy)-2-methyl-phenyl)-1,5-dimethylpyrimidine-2,4(1H,3H)-dione]?
EC50 (D1 [1]): 105 nM; Emax (D1 [1]): 82%; activity in β-arrestin2 recruitment (in words) (D1 [2]): no activity

With Cc1cc(Oc2nccc3ccccc23)ccc1-c1c(C)c(=O)[nH]c(=O)n1C [Compound 38, 6-(4-(Isoquinolin-1-yloxy)-2-methylphenyl)-1,5-dimethylpyrimidine-2,4(1H,3H)-dione] as the compound, how does the EC50 (D1 [1]) read?
The EC50 was 0.4 nM.

What about the Emax (D1 [1]) of the same compound?
Its Emax is 115%.

And the EC50 (D1 [2])?
The EC50 was greater than 10000 nM.

How did the EC50 (D1 [1]) turn out when Cc1cc(Oc2nccc3sccc23)ccc1-c1c(C)c(=O)[nH]c(=O)n1C [Compound 39, 1,5-Dimethyl-6-(2-methyl-4-(thieno[3,2-c]pyridin-4-yloxy)-phenyl)pyrimidine-2,4(1H,3H)-dione] was run?
Its EC50 is 7 nM.

And the Emax (D1 [1])?
The Emax was 104%.

What about the EC50 (D1 [2]) of the same compound?
The EC50 was 13 nM.

What about the Emax (D1 [2]) of the same compound?
Its Emax is 30%.

For Oc1cc2c(c(Cl)c1O)CCNCC2c1ccccc1 (stereo not drawn) [SKF81297, reference compound], which “forward locomotion compared to vehicle after 1 h” value (6-OHDA-lesioned mice; 61–90 min interval) is on record?
Its value is “no longer displayed significantly increased forward locomotion”.

And the “number of contralateral rotations vs vehicle” value (6-OHDA-lesioned mice; 90 min)?
Its value is “significant increases”.
